Key:
bovine insulin fibrils [1] = biological target: T1, bovine insulin fibrils (Bos taurus, UniProt P01317); assay: Fluorescence response (identification) of bovine insulin fibrils by the dye; assay type: binding; conditions: for identification effect on bovine insulin fibrils (fluorescence intensity): dye 0.2 mM, dye-insulin 0.025 mM, dye-insulin fibril 0.025 mM, FIG. 3A / FIG. 7; for identification of bovine insulin fibril (fluorescence intensity, dye comparison): 0.05 ml dye + 0.05 ml fibrils, diluted with PBS to 1 ml
T1 sequence (P01317 25-54 limits assumed): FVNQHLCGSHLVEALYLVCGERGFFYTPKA
T1 sequence (P01317 85-105 limits assumed): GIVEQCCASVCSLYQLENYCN
Description: 2) The bovine insulin fibrils were diluted with PBS to 0 μm, 1 μm, 3 μm, 5 μm, 10 μm, 20 μm and 30 μm respectively. Then the diluted samples were each added with 0.05 mL of […] (1 mM) solution, and tested in a fluorescence spectrometer for the fluorescence intensity (λex=440 nm). […] The results are shown in FIG. 1, where FIG. 1-A was the detection limit of QR on the bovine insulin fibrils; and FIG. 1-B was a linear interval for QR identification of the bovine insulin fibrils.
QR (0.2 mM), QR-insulin (0.025 mM) and QR-insulin fibril (0.025 mM) were determined for fluorescence intensities respectively.
(§1) 0.05 ml of each of QR, ThT, ThS and NR solutions was taken, then added with 0.05 ml of the bovine insulin fibrils, diluted with 0.9 ml of PBS to 1 ml, and then determined for the fluorescence intensity.
The fluorescence intensities of 4-(4-dimethylaminostyryl)quinoline (0.2 mM), 4-(4-dimethylaminostyryl)quinoline-insulin (0.025 mM) and 4-(4-dimethylaminostyryl)quinoline-insulin fibrils (0.025 mM) were determined respectively.

insulin fibril = insulin fibril (Bos taurus, UniProt P01317); assay: Photobleaching experiment under ultraviolet light (365 nm); assay type: physicochemical, bovine; conditions: UV 365 nm, insulin fibril 0.025 mM, dyes 0.05 mm, measured every 30 minutes; FIG. 6
Chain of insulin fibril (P01317 25-54 limits assumed): as the sequence (P01317 25-54 limits assumed) above
Description: A photobleaching experiment was carried out under ultraviolet light (365 nm). An insulin fibril (0.025 mM) was mixed with QR, ThT, ThS and NR respectively, with the concentrations of all dyes being 0.05 mm. The mixtures were placed under an ultraviolet lamp (365 nm) and measured for fluorescence every 30 minutes.

bovine insulin [2] = biological target: T2, bovine insulin (Bos taurus, UniProt P01317); assay: Raman (SERS) study of the manner of binding between QR and bovine insulin; conditions: SERS on silver sol, 532 nm, QR 0.01 mM, bovine insulin 0.01 mM; FIG. 2
T2 sequence (P01317 25-54 limits assumed): as above
Description: The manner of binding between QR and the bovine insulin was studied by using a Raman spectrometer with an excitation line of a laser model of 532 nm. First, a silver sol was synthesized as a SERS (surface-enhancement raman scattering) substrate. The synthesized silver nanoparticles were respectively added with the bovine insulin (0.01 mM), QR (0.01 mM) and a mixed sample of them, for detection.

lysozyme fibrils = lysozyme fibrils (Gallus gallus, UniProt P00698); assay: Fluorescence identification of lysozyme fibrils; assay type: binding; conditions: lysozyme 0.1 mM fibrillated at 65° C. for 180 min; FIG. 3C
Chain of lysozyme fibrils (P00698 19-147): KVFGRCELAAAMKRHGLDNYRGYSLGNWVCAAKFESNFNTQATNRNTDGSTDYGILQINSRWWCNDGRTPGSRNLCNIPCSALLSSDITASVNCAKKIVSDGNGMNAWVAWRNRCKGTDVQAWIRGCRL
Description: Formulation of a glycine/NaCl buffer solution: the pH value of the glycine/NaCl aqueous solution was adjusted to 2.0 with HCl, where the concentration of sodium chloride was 80 mM and the concentration of glycine was 70 mM.
The lysozyme (0.1 mM) was dissolved in a glycine/NaCl buffer solution for fibrillation at 65° C. under magnetic stirring at a rotation rate of 220 rmp for 180 min. The fluorescence intensities of QR, QR-lysozyme and QR-lysozyme fibrils were determined respectively.

bovine insulin [3] = biological target: T2, bovine insulin; assay: Isothermal titration calorimetry (ITC) of dyes with bovine insulin; assay type: binding; conditions: 25° C., insulin 0.25 mM, dyes 0.01 mM, FIG. 4
Description: Isothermal titration calorimetry (ITC): the bovine insulin was diluted to a final concentration of 0.25 mM, the QR, ThT, ThS, NR were each diluted to a final concentration of 0.01 mM, and then the aforementioned dyes were titrated with the bovine insulin at 25° C., where the dye was added dropwise into a sample chamber containing a solution of the bovine insulin through an automatically-controlled rotary syringe. At the same time, a blank test was carried out, where dye solutions with equal concentration and equal volume were added dropwise into ultra-pure water, and dilution heat was deducted to obtain a binding constant.

bovine insulin fibrils [4] = biological target: T1, bovine insulin fibrils; assay: QR replacement of a conventional probe bound to bovine insulin fibrils; assay type: binding; conditions: ThS or NR bound first, then QR added, FIGS. 5B-5D
Description: as §1
Since the binding constant of binding between QR and the bovine insulin is the largest, ThT, ThS, and NR were first used to bind to the bovine insulin fibrils for fluorescence determination, then QR was added for a replacement reaction.

lysozyme amyloid fibrils = lysozyme amyloid fibrils (Gallus gallus, UniProt P00698); assay: Monitoring the kinetic process of lysozyme fibrillation by fluorescence; conditions: lysozyme 0.1 mM in glycine/NaCl pH 2.0, samples at different time points; FIG. 3D
Chain of lysozyme amyloid fibrils (P00698 19-147): as above
Description: (§2) The kinetic process of the formation of the lysozyme amyloid fibrils was monitored with QR. […] Three duplicate samples were made for each group of samples, and all of the above samples were determined on a fluorescence spectrometer for fluorescence intensities.

[5] = biological target: bovine insulin amyloid fibrils (Bos taurus, UniProt P01317); assay: Monitoring the kinetic process of bovine insulin fibrillation by fluorescence; conditions: 0.5 mM insulin in NaCl/HCl pH 1.6, samples at different time points, QR 1 mM 0.05 mL; FIG. 3B
Chain of bovine insulin amyloid fibrils (P01317 25-54 limits assumed): as the sequence (P01317 25-54 limits assumed) above
Description: as §2, with “As the mechanism of amyloid fibril-related disease was still being explored, and the kinetic process of the amyloid fibrils might provide relevant information for the mechanism, the” for “The”, “bovine insulin” for “lysozyme”

Compound	identification effect on bovine insulin fibrils (fluorescence intensity) (bovine insulin fibrils [1])	fluorescence intensity of dye + insulin fibrils with increase of the illumination time (photostability) (insulin fibril)	identification of bovine insulin fibril (fluorescence intensity, dye comparison) (bovine insulin fibrils [1]; FIG. 5-A)	further results
CN(C)c1ccc(C=Cc2ccnc3ccccc23)cc1 [4-(4-dimethylaminostyryl)quinoline]	good identification effect			
CCN(CC)c1ccc2nc3c4ccccc4c(=O)cc-3oc2c1 [NR, nile red, reference compound]		decreased significantly	could well identify the bovine insulin fibril	
CC[n+]1c(/C=C/c2ccc(N(C)C)cc2)ccc2ccccc21 [QR, quinaldine red]	good identification effect	remained basically unchanged	could well identify the bovine insulin fibril	Raman signal between 900-1100 cm-1 (bovine insulin [2]): the signal for QR-insulin was disappeared; identification effect on lysozyme fibrils (fluorescence intensity) (lysozyme fibrils): good identification effect; binding constant of binding with the bovine insulin (comparison among dyes) (bovine insulin [3]): largest binding constant; replacement of ThT, ThS, NR bound to bovine insulin fibrils (bovine insulin fibrils [4]): replacement effect was obvious; linear range of fluorescence response to bovine insulin fibrils (bovine insulin fibrils [1]; fibrils diluted with PBS to 0-30 μm, fluorescence spectrometer, FIG. 1): 0-30 μm; fluorescence intensity compared with the other dyes (bovine insulin fibrils [1]; red light region, FIG. 5-A): certain advantages of the fluorescence intensity in the red light region; detection of the dynamic process of lysozyme fibrillation (lysozyme amyloid fibrils): could well detect the dynamic process of lysozyme fibrillation; detection of the dynamic process of bovine insulin fibrillation [5]: could well detect the dynamic process of bovine insulin fibrillation

Further lines, with some results ahead:

identification effect on bovine insulin fibrils (fluorescence intensity) (bovine insulin fibrils [1])	fluorescence intensity of dye + insulin fibrils with increase of the illumination time (photostability) (insulin fibril)	Compound	identification of bovine insulin fibril (fluorescence intensity, dye comparison) (bovine insulin fibrils [1]; FIG. 5-A)	further results
	decreased significantly	Cc1ccc2c(c1)sc(-c1ccc(N(C)C)cc1)[n+]2C.[Cl-] [ThT, Thioflavin T, reference compound]	could well identify the bovine insulin fibril	
	decreased significantly	Thioflavin S [ThS, reference compound]	could well identify the bovine insulin fibril	
